According to ChEMBL document CHEMBL3885881, “DrugMatrix”:

Species on record: Rattus norvegicus
Test: DrugMatrix - Regimen: Daily Repeat
Format: toxicity, organism-based, Sprague-Dawley
Parameters: regimen Daily Repeat, gender Male, age 6-8 weeks
Conditions: in vivo, po, 500 mg/kg, route oral GAVAGE, dose level High, vehicle .5 % CMC; for ABSOLUTE BASOPHIL / ABSOLUTE EOSINOPHIL / ABSOLUTE LYMPHOCYTE / ABSOLUTE MONOCYTE / ABSOLUTE SEGMENTED NEUTROPHIL / BASOPHIL / EOSINOPHIL / ERYTHROCYTE COUNT / HEMATOCRIT / HEMOGLOBIN / LEUKOCYTE COUNT / LYMPHOCYTE / MEAN CORPUSCULAR HEMOGLOBIN / MEAN CORPUSCULAR HEMOGLOBIN CONCENTRATION / MEAN CORPUSCULAR VOLUME / MONOCYTE / NEUTROPHIL / NUCLEATED RED BLOOD CELLS / PLATELET COUNT: tissue Blood
[1] = 72 h, tissue Plasma, time 3 day
[2] = 120 h, tissue Plasma, time 5 day

Clc1ccccc1 [CHLOROBENZENE]
ABSOLUTE BASOPHIL (72 h, time 3 day): 0 CELLS/uL
ABSOLUTE EOSINOPHIL (72 h, time 3 day): 274.33 CELLS/uL
ABSOLUTE LYMPHOCYTE (72 h, time 3 day): 9310 CELLS/uL
ABSOLUTE MONOCYTE (72 h, time 3 day): 211.33 CELLS/uL
ABSOLUTE SEGMENTED NEUTROPHIL (72 h, time 3 day): 771 CELLS/uL
BASOPHIL (72 h, time 3 day): 0%
EOSINOPHIL (72 h, time 3 day): 2.33%
ERYTHROCYTE COUNT (72 h, time 3 day): 6.63 x10E6/uL
HEMATOCRIT (72 h, time 3 day): 39.23%
HEMOGLOBIN (72 h, time 3 day): 14.07 G/DL
LEUKOCYTE COUNT (72 h, time 3 day): 10.57 x10E3/uL
LYMPHOCYTE (72 h, time 3 day): 88.33%
MEAN CORPUSCULAR HEMOGLOBIN (72 h, time 3 day): 21.2 pg
MEAN CORPUSCULAR HEMOGLOBIN CONCENTRATION (72 h, time 3 day): 35.9 G/DL
MEAN CORPUSCULAR VOLUME (72 h, time 3 day): 59.17 fL
MONOCYTE (72 h, time 3 day): 2%
NEUTROPHIL (72 h, time 3 day): 7.33%
NUCLEATED RED BLOOD CELLS (72 h, time 3 day): 0 /100WBC
PLATELET COUNT (72 h, time 3 day): 768.67 x10E3/uL
ALANINE AMINOTRANSFERASE [1]: 64 u/L
ALBUMIN [1]: 4.1 G/DL
ALKALINE PHOSPHATASE [1]: 361.67 u/L
ASPARTATE AMINOTRANSFERASE [1]: 100.33 u/L
BLOOD UREA NITROGEN [1]: 17.67 mg/dL
CARBON DIOXIDE [1]: 26.33 mmol/L
CHLORIDE [1]: 103.33 MEQ/L
CHOLESTEROL [1]: 86.67 mg/dL
CREATININE [1]: 0.21 mg/dL
GLUCOSE [1]: 184.33 mg/dL
LACTATE DEHYDROGENASE [1]: 325.33 u/L
LIPASE [1]: 9.67 u/L
PHOSPHORUS [1]: 14.17 mg/dL
POTASSIUM [1]: 5.77 MEQ/L
SODIUM [1]: 147.63 MEQ/L
TOTAL BILIRUBIN [1]: 0.17 mg/dL
TOTAL PROTEIN [1]: 5.83 G/DL
URIC ACID [1]: 2.13 mg/dL
ABSOLUTE BASOPHIL (120 h, time 5 day): 0 CELLS/uL
ABSOLUTE EOSINOPHIL (120 h, time 5 day): 83.67 CELLS/uL
ABSOLUTE LYMPHOCYTE (120 h, time 5 day): 5790.33 CELLS/uL
ABSOLUTE MONOCYTE (120 h, time 5 day): 83 CELLS/uL
ABSOLUTE SEGMENTED NEUTROPHIL (120 h, time 5 day): 376.33 CELLS/uL
BASOPHIL (120 h, time 5 day): 0%
EOSINOPHIL (120 h, time 5 day): 1.33%
ERYTHROCYTE COUNT (120 h, time 5 day): 6.34 x10E6/uL
HEMATOCRIT (120 h, time 5 day): 37.73%
HEMOGLOBIN (120 h, time 5 day): 13.57 G/DL
LEUKOCYTE COUNT (120 h, time 5 day): 6.33 x10E3/uL
LYMPHOCYTE (120 h, time 5 day): 91.33%
MEAN CORPUSCULAR HEMOGLOBIN (120 h, time 5 day): 21.37 pg
MEAN CORPUSCULAR HEMOGLOBIN CONCENTRATION (120 h, time 5 day): 35.9 G/DL
MEAN CORPUSCULAR VOLUME (120 h, time 5 day): 59.6 fL
MONOCYTE (120 h, time 5 day): 1.33%
NEUTROPHIL (120 h, time 5 day): 6%
NUCLEATED RED BLOOD CELLS (120 h, time 5 day): 0 /100WBC
PLATELET COUNT (120 h, time 5 day): 998.67 x10E3/uL
ALANINE AMINOTRANSFERASE [2]: 58 u/L
ALBUMIN [2]: 4.13 G/DL
ALKALINE PHOSPHATASE [2]: 325 u/L
ASPARTATE AMINOTRANSFERASE [2]: 91 u/L
BLOOD UREA NITROGEN [2]: 16 mg/dL
CARBON DIOXIDE [2]: 31.67 mmol/L
CHLORIDE [2]: 102.67 MEQ/L
CHOLESTEROL [2]: 68 mg/dL
CREATININE [2]: 0.19 mg/dL
GLUCOSE [2]: 160.67 mg/dL
LACTATE DEHYDROGENASE [2]: 181.33 u/L
LIPASE [2]: 9.33 u/L
PHOSPHORUS [2]: 11.9 mg/dL
POTASSIUM [2]: 5.74 MEQ/L
SODIUM [2]: 150.1 MEQ/L
TOTAL BILIRUBIN [2]: 0.2 mg/dL
TOTAL PROTEIN [2]: 6.07 G/DL
